Experimental findings from US11034692B1 (Genentech, Inc., priority 2017, dated 2021) are described below.

The term Ki denotes a dissociation constant, usually derived from enzyme kinetics or from competition with a known ligand.

The target of the assay is HPK1 (Homo sapiens, UniProt Q92918). The experiment in a line: HPK1 Lantha Binding Assay ("Lanth"). As to conditions: Table B1-1, read-out: HPK1 Ki (μM) (Lanth). The essentials:
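TR-FRET tracer displacement with 2 nM GST-tagged kinase, 2 nM Eu-anti-GST antibody and 15 nM Tracer222 at 23 C. Enzyme–antibody preincubated 1 h with compound, then tracer added for 1 h; 340 nm excitation, 615/665 nm emission. Ki from Morrison fit over an 11-point 5-fold dilution.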

Sequence of HPK1 (Q92918 whole entry, looked up): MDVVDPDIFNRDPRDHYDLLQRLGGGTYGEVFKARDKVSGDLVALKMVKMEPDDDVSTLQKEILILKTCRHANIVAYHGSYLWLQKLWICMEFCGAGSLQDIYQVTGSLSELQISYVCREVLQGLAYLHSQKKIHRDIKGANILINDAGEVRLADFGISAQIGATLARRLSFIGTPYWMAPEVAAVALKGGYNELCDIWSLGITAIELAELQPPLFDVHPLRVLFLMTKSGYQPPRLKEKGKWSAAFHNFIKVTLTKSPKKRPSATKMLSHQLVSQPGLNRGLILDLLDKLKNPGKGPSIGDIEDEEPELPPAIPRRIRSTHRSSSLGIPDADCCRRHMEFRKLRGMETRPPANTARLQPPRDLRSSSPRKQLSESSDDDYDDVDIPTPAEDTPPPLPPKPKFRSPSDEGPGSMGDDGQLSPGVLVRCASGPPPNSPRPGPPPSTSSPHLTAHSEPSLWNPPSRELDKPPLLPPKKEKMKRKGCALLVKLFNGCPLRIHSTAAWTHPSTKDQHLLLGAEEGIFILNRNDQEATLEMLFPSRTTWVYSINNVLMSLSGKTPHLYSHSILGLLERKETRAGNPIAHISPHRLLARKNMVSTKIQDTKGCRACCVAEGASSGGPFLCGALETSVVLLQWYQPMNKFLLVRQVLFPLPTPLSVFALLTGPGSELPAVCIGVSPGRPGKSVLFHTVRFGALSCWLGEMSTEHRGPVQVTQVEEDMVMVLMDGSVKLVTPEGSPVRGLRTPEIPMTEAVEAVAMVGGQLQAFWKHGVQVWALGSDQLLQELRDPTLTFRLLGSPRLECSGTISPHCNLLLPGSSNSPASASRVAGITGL

Take `CNC(=O)c1ccc(-c2cc3cc(NC(=O)[C@@H]4C[C@@H]4F)ncc3c(N)n2)c(C)c1` (racemic) [Compound 49, 4-(1-amino-6-((cis)-2-fluorocyclopropanecarboxamido)-2,7-naphthyridin-3-yl)-N,3-dimethylbenzamide]: the Ki stood at 6.82 nM. The same measure for `CC(C)c1ccncc1-c1cc2cc(NC(=O)[C@H]3C[C@@H]3C#N)ncc2c(N)n1` (racemic) [Compound 50, trans-N-(8-amino-6-(4-isopropylpyridin-3-yl)-2,7-naphthyridin-3-yl)-2-cyanocyclopropanecarboxamide]: 5.9 nM; for `Cc1ccncc1-c1cc2cc(NC(=O)[C@@H]3C[C@H]3F)ncc2c(N)n1` (racemic) [Compound 51, (±)-trans-N-(8-amino-6-(4-methylpyridin-3-yl)-2,7-naphthyridin-3-yl)-2-fluorocyclopropanecarboxamide]: 1.3 nM. Next, `Cc1c(-c2cc3cc(NC(=O)[C@@H]4C[C@@H]4F)ncc3c(N)n2)cnc2nc[nH]c12` (racemic) [Compound 52, (±)-cis-N-(8-amino-6-(7-methyl-1H-imidazo [4,5-b]pyridin-6-yl)-2,7-naphthyridin-3-yl)-2-fluorocyclopropanecarboxamide]: 2.98 nM; `CCc1ccncc1-c1cc2cc(NC(=O)[C@H]3C[C@@H]3COC)ncc2c(N)n1` (racemic) [Compound 53, (±)-trans-N-(8-amino-6-(4-ethylpyridin-3-yl)-2,7-naphthyridin-3-yl)-2-(methoxymethyl) cyclopropane carboxamide]: 0.736 nM. Consider `Nc1nc(N2CCCC2CCO)cc2cc(NC(=O)[C@@H]3C[C@@H]3F)ncc12` (mixture of isomers) [Compound 54, (±)-cis-N-(8-amino-6-(2-(2-hydroxyethyl)pyrrolidin-1-yl)-2,7-naphthyridin-3-yl)-2-fluorocyclopropanecarboxamide], for which the Ki was found to be 48.9 nM. Consider `COc1cc(-c2cc3cc(NC(=O)[C@@H]4C[C@@H]4F)ncc3c(N)n2)c(C)cn1` (racemic) [Compound 55, cis-N-(8-amino-6-(2-methoxy-5-methylpyridin-4-yl)-2,7-naphthyridin-3-yl)-2-fluorocyclopropanecarboxamide], for which the Ki was 6.4 nM. The same measure for `CCc1ccncc1-c1cc2cc(Nc3cc(C(O)CC)ccn3)ncc2c(N)n1` (racemic) [Compound 82, (±)-1-{2-[8-Amino-6-(4-ethylpyridin-3-yl)-[2,7]naphthyridin-3-ylamino]-pyridin-4-yl}propan-1-ol]: 0.4 nM. The same measure for `N#C[C@@H]1C[C@H]1C(=O)Nc1cc2cc(-c3cncc4c3CCCC4O)nc(N)c2cn1` (mixture of isomers) [Compound 99, (±)-trans-N-(8-amino-6-(8-hydroxy-5,6,7,8-tetrahydroisoquinolin-4-yl)-2,7-naphthyridin-3-yl)-2-cyanocyclopropane-1-carboxamide]: 70.7 nM; for `Nc1nc(-c2cccnc2)cc2cc(NC(=O)[C@@H]3C[C@@H]3F)ncc12` (racemic) [Compound 106, (±)-cis-N-(8-amino-6-(pyridin-3-yl)-2,7-naphthyridin-3-yl)-2-fluorocyclopropane-1-carboxamide]: 4.97 nM; for `N#C[C@@H]1C[C@H]1C(=O)Nc1cc2cc(-c3cn[nH]c3)nc(N)c2cn1` (racemic) [Compound 112, (±)-trans-N-(8-amino-6-(1H-pyrazol-4-yl)-2,7-naphthyridin-3-yl)-2-cyanocyclopropane-1-carboxamide]: 1.87 nM. The same measure for `CC(C)c1[nH]ncc1-c1cc2cc(NC(=O)[C@@H]3C[C@H]3C#N)ncc2c(N)n1` (racemic) [Compound 114, (±)-trans-N-(8-amino-6-(5-isopropyl-1H-pyrazol-4-yl)-2,7-naphthyridin-3-yl)-2-cyanocyclopropane-1-carboxamide]: 2.24 nM; for `Cc1ccncc1-c1cc2cc(NC(=O)[C@@H]3C[C@H]3C)ncc2c(N)n1` (racemic) [Compound 118, (±)-trans-N-(8-amino-6-(4-methylpyridin-3-yl)-2,7-naphthyridin-3-yl)-2-methylcyclopropane-1-carboxamide]: 0.476 nM. Take `Cc1ccncc1-c1cc2cc(NC3CCNC3)ncc2c(N)n1` (racemic) [Compound 120, (±)-3-(4-methyl-3-pyridyl)-N6-pyrrolidin-3-yl-2,7-naphthyridine-1,6-diamine]: the Ki is 2400 nM. Take `Cc1ccncc1-c1cc2cc(NC(=O)[C@@H]3C[C@H]3c3cn[nH]c3)ncc2c(N)n1` (racemic) [Compound 122, (±)-trans-N-[8-amino-6-(4-methyl-3-pyridyl)-2,7-naphthyridin-3-yl]-2-(1H-pyrazol-4-yl)cyclopropanecarboxamide]: the Ki was determined as 0.0629 nM.

For the compound `Cc1ccncc1-c1cc2cc(NC(=O)[C@H]3C[C@]34CCNC4)ncc2c(N)n1` (racemic) [Compound 126, (±)-cis-N-(8-amino-6-(4-methylpyridin-3-yl)-2,7-naphthyridin-3-yl)-5-azaspiro[2.4]heptane-1-carboxamide], the Ki stood at 7 nM.

In the case of `COCCN1CC[C@]2(C[C@H]2C(=O)Nc2cc3cc(-c4cnccc4C)nc(N)c3cn2)C1` (racemic) [Compound 127, (±)-trans-N-(8-amino-6-(4-methylpyridin-3-yl)-2,7-naphthyridin-3-yl)-5-(2-methoxyethyl)-5-azaspiro[2.4]heptane-1-carboxamide], the Ki worked out at 5.3 nM. The same measure for `COCCN1CC[C@]2(C[C@@H]2C(=O)Nc2cc3cc(-c4cnccc4C)nc(N)c3cn2)C1` (racemic) [Compound 128, (±)-cis-N-(8-amino-6-(4-methylpyridin-3-yl)-2,7-naphthyridin-3-yl)-5-(2-methoxyethyl)-5-azaspiro[2.4]heptane-1-carboxamide]: 2.5 nM; for `Cc1ccncc1-c1cc2cc(NC(=O)[C@@H]3C[C@H]3c3cccnc3)ncc2c(N)n1` (racemic) [Compound 131, (±)-trans-N-[8-amino-6-(4-methyl-3-pyridyl)-2,7-naphthyridin-3-yl]-2-(3-pyridyl)cyclopropane carboxamide]: 0.31 nM.

`N#C[C@H]1C[C@@H]1C(=O)Nc1cc2cc(-c3cn[nH]c3C(F)(F)F)nc(N)c2cn1` (racemic) [Compound 132, (±)-trans-N-[8-amino-6-[5-(trifluoromethyl)-1H-pyrazol-4-yl]-2,7-naphthyridin-3-yl]-2-cyano-cyclopropanecarboxamide]: the Ki stood at 6.5 nM. Next, `Cc1cc2[nH]c(=O)oc2cc1-c1cc2cc(NC(=O)C3C[C@H]3C#N)ncc2c(N)n1` (mixture of isomers) [Compound 135, (±)-((trans-)-N-(8-amino-6-(5-methyl-2-oxo-2,3-dihydrobenzo[d]oxazol-6-yl)-2,7-naphthyridin-3-yl)-2-cyanocyclopropanecarboxamide]: 0.25 nM; `Cc1ccncc1-c1cc2cc(NC(=O)[C@@H]3C[C@@H]3C(=O)N(C)C)ncc2c(N)n1` (racemic) [Compound 136, (±)-cis-N1-(8-amino-6-(4-methylpyridin-3-yl)-2,7-naphthyridin-3-yl)-N2,N2-dimethylcyclopropane-1,2-dicarboxamide]: 130 nM; `CCNC(=O)[C@H]1C[C@H]1C(=O)Nc1cc2cc(-c3cnccc3C)nc(N)c2cn1` (racemic) [Compound 137, (±)-(cis)-N1-(8-amino-6-(4-methylpyridin-3-yl)-2,7-naphthyridin-3-yl)-N2-ethylcyclopropane-1,2-dicarboxamide]: 110 nM. For `Cc1ccncc1-c1cc2cc(NC(=O)[C@H]3C[C@@H]3C(=O)N(C)C)ncc2c(N)n1` (racemic) [Compound 138, (±)-trans-N1-(8-amino-6-(4-methylpyridin-3-yl)-2,7-naphthyridin-3-yl)-N2,N2-dimethylcyclopropane-1,2-dicarboxamide], the Ki worked out at 32 nM. The same measure for `Cc1cc2c(cc1-c1cc3cc(NC(=O)[C@H]4C[C@@H]4C#N)ncc3c(N)n1)oc(=O)n2C` (racemic) [Compound 142, (±)-trans-N-(8-amino-6-(3,5-dimethyl-2-oxo-2,3-dihydrobenzo[d]oxazol-6-yl)-2,7-naphthyridin-3-yl)-2-cyanocyclopropanecarboxamide]: 1.4 nM; for `Cc1cc2[nH]c(=O)oc2cc1-c1cc2cc(NC(=O)[C@@H]3C[C@H]3c3cn[nH]c3)ncc2c(N)n1` (racemic) [Compound 144, (±)-trans-N-[8-amino-6-(5-methyl-2-oxo-3H-1,3-benzoxazol-6-yl)-2,7-naphthyridin-3-yl]-2-(1H-pyrazol-4-yl)cyclopropanecarboxamide]: 1.1 nM. The same measure for `COc1ccc(Cn2cncc2[C@@H]2C[C@H]2C(=O)Nc2cc3cc(-c4cnccc4C)nc(N)c3cn2)cc1` (racemic) [Compound 145, (±)-trans-N-[8-amino-6-(4-methyl-3-pyridyl)-2,7-naphthyridin-3-yl]-2-[3-[(4-methoxyphenyl)methyl]imidazol-4-yl]cyclopropanecarboxamide]: 2 nM. Consider `CCS(=O)(=O)n1cc([C@H]2C[C@@H]2C(=O)Nc2cc3cc(-c4cnccc4C)nc(N)c3cn2)cn1` (racemic) [Compound 146, (±)-trans-N-[8-amino-6-(4-methyl-3-pyridyl)-2,7-naphthyridin-3-yl]-2-(1-ethylsulfonylpyrazol-4-yl)cyclopropanecarboxamide], for which the Ki came to 0.02 nM. Next, `Cc1ccncc1-c1cc2cc(NC(=O)[C@@H]3C[C@]34CCN(S(C)(=O)=O)C4)ncc2c(N)n1` (racemic) [Compound 148, (±)-trans-N-(8-amino-6-(4-methylpyridin-3-yl)-2,7-naphthyridin-3-yl)-5-(methylsulfonyl)-5-azaspiro[2.4]heptane-1-carboxamide]: 2.8 nM. `Cc1ccncc1-c1cc2cc(NC(=O)[C@H]3C[C@]34CCN(S(C)(=O)=O)C4)ncc2c(N)n1` (racemic) [Compound 149, (±)-cis-N-(8-amino-6-(4-methylpyridin-3-yl)-2,7-naphthyridin-3-yl)-5-(methylsulfonyl)-5-azaspiro[2.4]heptane-1-carboxamide]: the Ki is 0.78 nM.
